Read-outs that look alike come from different tables or passages of the source.
Key:
[1] = target: T1, Adrenergic α1B (Rattus norvegicus, UniProt P15823); test: Radioligand binding 203200 Adrenergic α1B
T1 construct: 203200
T1 sequence (P15823 1-515): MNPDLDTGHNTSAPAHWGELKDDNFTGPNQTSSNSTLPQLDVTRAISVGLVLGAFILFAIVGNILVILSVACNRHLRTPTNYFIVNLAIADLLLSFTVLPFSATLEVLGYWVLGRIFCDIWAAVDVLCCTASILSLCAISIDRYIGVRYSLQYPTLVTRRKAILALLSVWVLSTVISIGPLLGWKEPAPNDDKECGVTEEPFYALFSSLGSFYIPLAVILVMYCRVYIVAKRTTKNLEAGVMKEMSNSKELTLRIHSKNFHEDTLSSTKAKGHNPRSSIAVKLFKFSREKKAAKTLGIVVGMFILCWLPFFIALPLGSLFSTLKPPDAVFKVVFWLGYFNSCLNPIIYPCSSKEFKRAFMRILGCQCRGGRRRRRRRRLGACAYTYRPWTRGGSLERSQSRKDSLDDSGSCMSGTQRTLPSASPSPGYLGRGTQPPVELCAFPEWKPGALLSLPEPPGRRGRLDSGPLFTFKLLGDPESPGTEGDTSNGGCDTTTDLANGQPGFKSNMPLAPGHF
Excerpt: (§1) Receptor binding methods, (α-adrenergic subtype specific, are provided below.

[2] = target: T2, Adrenergic α1D (Homo sapiens, UniProt P25100); test: Radioligand binding 203400 Adrenergic α1D
T2 construct: host or cells: HEK-293 cells
T2 sequence (P25100 1-572): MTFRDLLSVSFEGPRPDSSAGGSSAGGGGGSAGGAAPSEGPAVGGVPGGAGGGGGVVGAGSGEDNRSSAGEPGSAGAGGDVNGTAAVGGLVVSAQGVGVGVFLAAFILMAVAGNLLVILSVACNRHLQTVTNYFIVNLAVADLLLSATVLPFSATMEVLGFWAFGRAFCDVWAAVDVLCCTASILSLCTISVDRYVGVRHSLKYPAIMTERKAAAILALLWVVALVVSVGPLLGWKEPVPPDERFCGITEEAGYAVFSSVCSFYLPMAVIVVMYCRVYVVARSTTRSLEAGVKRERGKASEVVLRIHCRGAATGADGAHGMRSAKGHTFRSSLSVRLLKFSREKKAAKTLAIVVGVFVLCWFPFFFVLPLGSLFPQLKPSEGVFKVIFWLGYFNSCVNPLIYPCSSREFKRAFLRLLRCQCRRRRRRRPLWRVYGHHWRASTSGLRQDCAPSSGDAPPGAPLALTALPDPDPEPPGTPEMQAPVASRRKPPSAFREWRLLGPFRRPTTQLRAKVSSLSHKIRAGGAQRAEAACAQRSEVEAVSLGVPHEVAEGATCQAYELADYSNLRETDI
Excerpt: as §1

[3] = target: Adrenergic α2* Non-Selective; test: Radioligand binding 203900 Adrenergic α2* Non-Selective; parameters: species or system rat
Excerpt: Receptor binding methods, α-adrenergic nonselective, are provided below.

[4] = Oral bioavailability in Sprague-Dawley rats; format: in vivo; conditions: rat, plasma, 30 μmol/kg
Procedure: 11-piperazin-1-yldibenzo[b,f][1,4]thiazepine was administered to 3 Sprague-Dawley rats each either intravenously or orally at doses of 10 μmol/kg or 30 μmol/kg, respectively, in a sodium citrate (pH 3) formulation. Blood samples were removed from each animal at several time points after dosing. The blood samples were centrifuged to produce plasma. Aliquots of each plasma sample were analyzed by an HPLC method with mass spectrometric detection to measure 11-piperazin-1-yldibenzo[b,f][1,4]thiazepine. The area under the plasma concentration curves (AUC) constructed from the sample measurements following iv or po administration were used to calculate oral biovailability.

[5] = tested on: mice; test: Tail suspension test; format: in vivo, mouse
Procedure: Antidepressant activity of 11-piperazin-1-yldibenzo[b,f][1,4]thiazepine was assessed in mice according to the tail suspension test. As shown in the results below, 11-piperazin-1-yldibenzo[b,f][1,4]thiazepine has antidepressant activity in mice.
In a first experiment, mice (n=10/group) were treated with vehicle, 2.0, 5.0, or 10.0 mg/kg of 11-piperazin-1-yldibenzo[b,f][1,4]thiazepine s.c. 15 minutes prior to the test session. Mice were suspended from their tails for 7 minutes. During the last 5 minutes of the test, the duration of immobility was recorded. In a second experiment, mice (n=10/group) were treated with vehicle, 30 mg/kg 11-piperazin-1-yldibenzo[b,f][1,4]thiazepine, or 30 mg/kg fluoxetine p.o. 60 minutes prior to the test session. Mice were suspended from their tails for 7 minutes. During the last 5 minutes of the test, the duration of immobility was recorded.

[6] = target: T3, D1 receptors (Homo sapiens, UniProt P21728); test: PET scans of primate subjects, D1 occupancy; format: in vivo; conditions: preliminary PET scans
T3 construct: from tissue; host or cells: brain of living primate subjects (PET)
T3 sequence (P21728 whole entry): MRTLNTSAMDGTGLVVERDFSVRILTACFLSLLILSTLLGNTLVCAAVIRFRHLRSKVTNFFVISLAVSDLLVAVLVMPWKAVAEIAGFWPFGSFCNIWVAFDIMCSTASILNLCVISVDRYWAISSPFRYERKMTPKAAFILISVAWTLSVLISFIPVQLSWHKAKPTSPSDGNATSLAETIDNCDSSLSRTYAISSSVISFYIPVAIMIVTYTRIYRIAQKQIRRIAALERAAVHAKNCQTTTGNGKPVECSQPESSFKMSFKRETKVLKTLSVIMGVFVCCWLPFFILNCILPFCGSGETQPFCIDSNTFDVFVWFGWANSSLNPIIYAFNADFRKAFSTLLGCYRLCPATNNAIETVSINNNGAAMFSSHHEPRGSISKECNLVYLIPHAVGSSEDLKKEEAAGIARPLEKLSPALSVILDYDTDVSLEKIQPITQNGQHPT
Excerpt: (§2) The compound of Formula I is a dibenzothiazepine that has shown antidopaminergic activity.

[7] = target: T4, 5-HT1A receptors (Homo sapiens, UniProt P08908); test: PET scans of primate subjects, 5-HT1A occupancy; format: in vivo; parameters: from tissue; host or cells: brain of living primate subjects (PET); conditions: preliminary PET scans
T4 sequence (P08908 1-422): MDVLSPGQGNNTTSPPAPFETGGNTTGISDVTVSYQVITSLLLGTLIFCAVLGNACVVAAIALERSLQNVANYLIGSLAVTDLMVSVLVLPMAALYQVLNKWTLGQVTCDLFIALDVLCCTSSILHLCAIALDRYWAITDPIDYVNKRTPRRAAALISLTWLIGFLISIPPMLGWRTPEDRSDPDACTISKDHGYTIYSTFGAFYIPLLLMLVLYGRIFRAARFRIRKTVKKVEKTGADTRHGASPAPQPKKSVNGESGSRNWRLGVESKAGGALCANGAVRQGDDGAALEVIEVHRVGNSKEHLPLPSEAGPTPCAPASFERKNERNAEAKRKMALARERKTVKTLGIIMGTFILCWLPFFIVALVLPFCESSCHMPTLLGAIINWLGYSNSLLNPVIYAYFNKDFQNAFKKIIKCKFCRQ
Excerpt: as §2

## c1ccc2c(c1)N=C(N1CCNCC1)c1ccccc1S2 [11-piperazin-1-yldibenzo[b,f][1,4]thiazepine]
[1]
  n: 1.1 ± 0.024
[1]; 0.1 μM
  inhibition at 0.1 µM: 50%
[1]; read-out: ki
  Ki: 75 ± 9 nM
[1]; α1B, read-out: Affinity
  Ki: 75 nM
[2]
  IC50: 377 ± 49 nM
  n: 0.984 ± 0.111
[2]; 0.3 μM
  inhibition at 0.3 µM: 53%
[2]; read-out: ki
  Ki: 185 ± 24 nM
[2]; α1D, read-out: Affinity
  Ki: 185 nM
[3]
  IC50: 1410 nM
  Ki: 1290 nM
[3]; 10 μM
  % INH.: 73%
[4]
  bioavailability: 11%
[5]; 10.0 mg/kg s.c.
  reduction of immobility, fraction of that of the vehicle control group: more than ½
[5]; 10.0 mg/kg s.c., p<0.01
  duration of immobility compared with controls: significantly reduced immobility
[5]; 30 mg/kg p.o., 60 minutes prior
  reduction of immobility, fraction of that of the vehicle control group: more than ½
[5]; 30 mg/kg p.o., 60 minutes prior, p<0.01
  duration of immobility compared to the vehicle control group: significantly reduced immobility
[5]; all doses tested: 2.0, 5.0, 10.0 mg/kg s.c., 15 minutes prior
  duration of immobility: reduced immobility
[6]
  receptor occupancy by PET: occupies
[7]
  receptor occupancy by PET: occupies

Reference: patent publication US20090093460A1, “Compositions” (AstraZeneca AB, priority 2003, published 2009)
